In patent publication US20110098358A1, “HUMAN BETA3 ADRENERGIC RECEPTOR LIGAND, AND FOOD OR PHARMACEUTICAL PRODUCT CONTAINING THE SAME” (RICOM CORPORATION, priority 2008, published 2011):
Counter-ions that a name gives are not always drawn.

Experiments:
[1] = biological target: T1, human recombinant adrenergic β3 receptor (Homo sapiens, UniProt P13945); assay: adrenergic β3 receptor binding activity ([125I]cyanopindolol); conditions: HEK-293 cells, 0.5 nM [125I]cyanopindolol, Tris buffer pH 7.4, 25° C., 90 minutes
T1 construct: expressed in transfected cells; host or cells: HEK-293 cells
Method: The adrenergic β3 receptor binding activity can be measured according to, for example, the method described in Cell Biology: Feve et al, Proc. Natl. Acad. Sci. USA 91 (1994), Vol. 91, pp. 5677-5681, using HEK-293 cells which express a human recombinant adrenergic β3 receptor. That is, a solution of a sample in 1% DMSO, and 0.5 nM [^125I]cyanopindolol are added to Tris buffer (pH 7.4), and the HEK-293 cells are cultured therein at 25° C. for 90 minutes, followed by filtration and washing of the cells, and measurement of the radioactivity of the adrenergic β3 receptor binding ligand.
Each component containing the components shown in Table 1 below was dissolved in DMSO to 1 w/v %, and the resulting solution was added to an adipocyte differentiation medium (Primary Cell Co., Ltd., Lot No. 080411) to a final concentration of 10 μg/mL before use. The test of the adrenergic β3 receptor binding activity was carried out by the above-mentioned method.

[2] = system: visceral preadipocytes (VAC); assay: observation of cell morphology (VAC), fat accumulation and reaction to NE; type: cell-based, rat; conditions: NE 1×10^−6 M, 6 hours on last day
Method: (§1) Using 4 types of rat primary preadipocytes (visceral fat, […], subcutaneous white fat and brown fat), the fat accumulation-suppressing effect and fat-releasing effect by the composition of the present invention were preliminarily studied in vitro. […] The test of the adrenergic β3 receptor binding activity was carried out by the above-mentioned method. The Preadipocyte Culture kit H-3 with 3 types of cells (primary, rat, Primary Cell Co., Ltd.: visceral preadipocytes (hereinafter referred to as VAC), Lot No. FIHA-FV; subcutaneous white preadipocytes (hereinafter referred to as […] preadipocytes (hereinafter referred to as EAC), FIHA-FE) and the Brown Adipocyte Culture kit F-8 (primary, rat, Primary Cell Co., Ltd.: Lot No. HDOA-1) were used. The 3 types of preadipocytes (visceral fat, […] subcutaneous white fat) were seeded into 12 wells in a 24-well plate at a cell number of 1.5×10^6 (1.2×10^5 cells/mL/well), followed by preculture for 4 days in the adipocyte differentiation medium. Thereafter (on day 4 after seeding), the negative control substance and the test substance were prepared to a predetermined concentration in a visceral fat differentiation medium, and the prepared medium was added to the cells. The medium was replaced on days 0, 2 and 4 after the addition of the test substance (days 4, 6 and 8 after seeding), while adding freshly prepared medium after the collection. […]

[3] = system: subcutaneous white preadipocytes (SAC); assay: observation of cell morphology (SAC), fat accumulation and reaction to NE; type: cell-based, rat; conditions: NE 1×10^−6 M, 6 hours on last day
Method: as §1

[4] = system: periepididymal preadipocytes (EAC); assay: observation of cell morphology (EAC), fat accumulation and reaction to NE; type: cell-based, rat; conditions: NE 1×10^−6 M, 6 hours on last day
Method: as §1

[5] = system: brown adipocytes (BAT); assay: observation of cell morphology (BAT), fat accumulation and reaction to NE; type: cell-based, rat; conditions: 1 hour on last day
Method: Using 4 types of rat primary preadipocytes (visceral fat, […], subcutaneous white fat and brown fat), the fat accumulation-suppressing effect and fat-releasing effect by the composition of the present invention were preliminarily studied in vitro. […] The test of the adrenergic β3 receptor binding activity was carried out by the above-mentioned method. The Preadipocyte Culture kit H-3 with 3 types of cells (primary, rat, Primary Cell Co., Ltd.: visceral preadipocytes (hereinafter referred to as VAC), Lot No. FIHA-FV; subcutaneous white preadipocytes (hereinafter referred to as […] preadipocytes (hereinafter referred to as EAC), FIHA-FE) and the Brown Adipocyte Culture kit F-8 (primary, rat, Primary Cell Co., Ltd.: Lot No. HDOA-1) were used. Cells seeded on a 24-well plate were cultured in a growth medium for 3 days, and the cells were confirmed to have become confluent. After replacing the medium with a differentiation induction medium, the culture was continued for 2 days, and the negative control substance and the test substance were prepared to a predetermined concentration with a maintenance medium, followed by addition of the prepared medium and 4 days of culture. The treatment with NE was carried out in the same manner as in VAC, using the maintenance medium. […]

T1 sequence (P13945 whole entry): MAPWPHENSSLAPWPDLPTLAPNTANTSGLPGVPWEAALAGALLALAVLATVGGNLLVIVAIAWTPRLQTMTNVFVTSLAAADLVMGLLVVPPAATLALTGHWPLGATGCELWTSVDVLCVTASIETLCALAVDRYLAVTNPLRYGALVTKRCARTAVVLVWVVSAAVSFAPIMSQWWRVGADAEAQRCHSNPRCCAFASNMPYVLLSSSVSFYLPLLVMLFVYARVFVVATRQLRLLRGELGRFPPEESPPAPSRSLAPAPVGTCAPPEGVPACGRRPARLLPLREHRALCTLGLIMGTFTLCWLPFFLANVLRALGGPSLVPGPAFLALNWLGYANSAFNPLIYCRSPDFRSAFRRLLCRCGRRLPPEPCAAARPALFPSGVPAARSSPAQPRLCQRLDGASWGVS

Binding activity (%) [1] | Structure (SMILES) | reaction by treatment with NE (morphology) [2] | reaction by the addition of NE (morphology) [3] | reaction by the addition of NE (morphology) [4] | reaction by 1 hour of treatment with NE (morphology) [5]
22% | CC/C=C\C/C=C\C/C=C\CCCCCCCC(=O)O [compound 7, C18:3α] | – | – | – | –
– | NC[C@H](O)c1ccc(O)c(O)c1 [NE, (−)-Norepinephrine(+)-bitartrate salt hydrate] | reaction by 6 hours of the treatment with NE was obtained | reaction by the addition of NE was obtained | reaction by the addition of NE was obtained | sufficiently confirmed
